≈ marks a conversion by molar mass, not a printed value.
What was measured:
Assay in all cases: ≥ marks a high value that may be exact or a test limit, other limits are often not marked, values filed in µg/mL are converted to µM
[1] = test system: Staphylococcus aureus ATCC 700699
[2] = test system: Klebsiella pneumoniae ATCC 700603
[3] = test system: Staphylococcus aureus ATCC 29213
[4] = test system: Pseudomonas aeruginosa ATCC 27853
[5] = test system: Staphylococcus aureus ATCC 33591
[6] = test system: Escherichia coli ATCC 25922
[7] = test system: Staphylococcus xylosus
[8] = test system: Escherichia coli DH5alpha
[9] = test system: Staphylococcus aureus ATCC 6538P
[10] = test system: Escherichia coli JM109
[11] = test system: Staphylococcus aureus
[12] = test system: Pseudomonas aeruginosa
[13] = test system: Candida albicans ATCC 64550
[14] = test system: Salmonella enterica subsp. enterica serovar Typhimurium ATCC 14028
[15] = test system: Bacillus cereus ATCC 14579
[16] = test system: Streptococcus mutans ATCC 25175
[17] = test system: Staphylococcus aureus ATCC 6538
[18] = test system: Escherichia coli ATCC 35218
[19] = test system: Pseudomonas aeruginosa PAO1
[20] = test system: Staphylococcus aureus 209P
[21] = test system: Escherichia coli C600
[22] = test system: Staphylococcus epidermidis ATCC 12228
[23] = test system: Pseudomonas aeruginosa ATCC 15442
[24] = test system: Staphylococcus aureus ATCC 25923
[25] = test system: Escherichia coli D31
[26] = test system: Candida albicans ATCC 10231

SMILES: CC[C@H](C)[C@H](NC(=O)[C@H](CC(=O)O)NC(=O)[C@H](CCCCN)NC(=O)[C@H](C)NC(=O)[C@H](C)NC(=O)CNC(=O)[C@H](CCCCN)NC(=O)[C@H](CC(C)C)NC(=O)[C@@H](NC(=O)[C@H](CC(=O)O)NC(=O)[C@@H](NC(=O)[C@@H](NC(=O)CN)C(C)C)C(C)C)[C@@H](C)CC)C(=O)N[C@@H](C)C(=O)N[C@@H](C)C(=O)N[C@@H](Cc1cnc[nH]1)C(=O)N[C@@H](CC(C)C)C(=O)N[C@@H](C)C(=O)N[C@@H](CO)C(=O)N[C@@H](CCCCN)C(=O)N[C@H](C(=O)N[C@@H](CCSC)C(=O)N[C@@H](CC(N)=O)C(=O)N[C@@H](CCCCN)C(=O)N[C@@H](CC(C)C)C(N)=O)C(C)C [GVVDILKGAAKDIAAHLASKVMNKL]
- MIC [1]: ≥ 100 µM
- MIC [2]: 50 µM (≈ 128 µg/mL)
- MIC [3]: > 100 µM
- MIC [4]: 100 µM (≈ 256 µg/mL)
- MIC [5]: ≥ 100 µM
- MIC [6]: 12.5 µM (≈ 32 µg/mL)

SMILES: CC[C@H](C)[C@H](NC(=O)[C@H](CC(C)C)NC(=O)[C@@H](NC(=O)[C@H](CC(C)C)NC(=O)[C@@H](NC(=O)[C@H](CC(C)C)NC(=O)[C@@H](NC(=O)[C@H](CCCCN)NC(=O)[C@H](CCCN=C(N)N)NC(=O)[C@@H](N)CCCCN)[C@@H](C)CC)[C@@H](C)CC)[C@@H](C)CC)C(=O)N[C@@H](CC(C)C)C(=O)O [KRKILILILIL]
- MIC [7]: ≥ 64 µM
- MIC [8]: ≥ 64 µM

SMILES: NCCCC[C@H](NC(=O)[C@H](CCCN=C(N)N)NC(=O)[C@H](CCCCN)NC(=O)CNC(=O)[C@H](CCCCN)NC(=O)[C@H](CCCN=C(N)N)NC(=O)[C@@H](N)CCCCN)C(=O)O [KRKGKRK]
- MIC [7]: ≥ 64 µM
- MIC [8]: ≥ 64 µM

SMILES: CC[C@H](C)[C@H](NC(=O)[C@H](CC(=O)O)NC(=O)[C@H](CCCCN)NC(=O)[C@H](C)NC(=O)[C@H](C)NC(=O)CNC(=O)[C@H](CCCCN)NC(=O)[C@H](CC(C)C)NC(=O)[C@@H](NC(=O)[C@H](CC(=O)O)NC(=O)[C@@H](NC(=O)[C@@H](NC(=O)CN)C(C)C)C(C)C)[C@@H](C)CC)C(=O)N[C@@H](C)C(=O)NCC(=O)N[C@@H](Cc1cnc[nH]1)C(=O)N[C@@H](CC(C)C)C(=O)N[C@@H](C)C(=O)N[C@@H](CO)C(=O)N[C@@H](CCCCN)C(=O)N[C@H](C(=O)N[C@@H](C)C(=O)N[C@@H](CC(N)=O)C(=O)N[C@@H](CCCCN)C(=O)N[C@@H](CC(C)C)C(N)=O)C(C)C [GVVDILKGAAKDIAGHLASKVANKL]
- MIC [1]: ≥ 100 µM
- MIC [2]: > 100 µM
- MIC [3]: > 100 µM
- MIC [4]: > 100 µM
- MIC [5]: ≥ 100 µM
- MIC [6]: > 100 µM

SMILES: CC[C@H](C)[C@H](NC(=O)[C@H](C)NC(=O)[C@H](CC(C)C)NC(=O)[C@H](CCCN=C(N)N)NC(=O)[C@H](CC(C)C)NC(=O)[C@H](C)N)C(=O)N[C@@H](CCCN=C(N)N)C(=O)N[C@@H](CCCN=C(N)N)C(=O)N[C@@H](CCCN=C(N)N)C(N)=O [ALRLAIRRR]
- MIC [9]: 1.78 µM (≈ 2 µg/mL)
- MIC [10]: 1.33 µM (≈ 1.5 µg/mL)
- MIC [11]: > 42.7 µM
- MIC [12]: 2.67 µM (≈ 3 µg/mL)

SMILES: NCCCC[C@H](NC(=O)[C@H](CCCCN)NC(=O)[C@H](CCCN=C(N)N)NC(=O)[C@H](CCCN=C(N)N)NC(=O)[C@H](Cc1ccc(O)cc1)NC(=O)[C@H](Cc1ccc(O)cc1)NC(=O)[C@H](CCCCN)NC(=O)[C@H](CCCN=C(N)N)NC(=O)CNC(=O)[C@@H](N)CCCN=C(N)N)C(=O)O [RGRKYYRRKK]
- MIC [13]: ≥ 100 µM

SMILES: CC[C@H](C)[C@H](N)C(=O)N[C@@H](CC(N)=O)C(=O)N[C@@H](CC(C)C)C(=O)N[C@@H](CCCCN)C(=O)N[C@@H](C)C(=O)N[C@H](C(=O)N[C@@H](C)C(=O)N[C@@H](C)C(=O)N[C@@H](CC(C)C)C(=O)N[C@H](C(=O)N[C@@H](CCCCN)C(=O)N[C@@H](CCCCN)C(=O)N[C@H](C(=O)O)C(C)C)C(C)C)[C@@H](C)CC [INLKAIAALVKKV]
- MIC [14]: 12.2 µM (≈ 16.8 µg/mL)
- MIC [15]: ≥ 41.5 µM
- MIC [16]: 23.6 µM (≈ 32.6 µg/mL)
- MIC [2]: 13.3 µM (≈ 18.4 µg/mL)
- MIC [17]: 43.2 µM (≈ 59.7 µg/mL)
- MIC [18]: 8.52 µM (≈ 11.8 µg/mL)

SMILES: CC(C)[C@@H]1NC(=O)CNC(=O)[C@H](CCCN=C(N)N)NC(=O)[C@H](C(C)C)NC(=O)[C@H](CCCN=C(N)N)NC(=O)[C@H](C)NC(=O)[C@H](Cc2ccc(O)cc2)NC(=O)[C@H](C(C)C)NC(=O)[C@@H](NC(=O)[C@H](Cc2c[nH]c3ccccc23)NC(=O)[C@@H](N)CCCN=C(N)N)CSSC[C@@H](C(=O)N[C@@H](CCCN=C(N)N)C(=O)O)NC(=O)[C@H](CCCN=C(N)N)NC(=O)[C@H](CCCN=C(N)N)NC(=O)[C@H](Cc2ccc(O)cc2)NC(=O)[C@H](CCCN=C(N)N)NC1=O [RWCVYARVRGVRYRRCR]
- MIC [19]: 6.25 µM (≈ 14.1 µg/mL)
- MIC [20]: 3.13 µM (≈ 7.05 µg/mL)
- MIC [21]: 3.13 µM (≈ 7.05 µg/mL)

SMILES: CC(C)[C@H](NC(=O)[C@H](Cc1c[nH]c2ccccc12)NC(=O)[C@H](CCCCN)NC(=O)[C@@H](N)CCCN=C(N)N)C(=O)N[C@@H](Cc1c[nH]c2ccccc12)C(=O)N[C@@H](Cc1c[nH]c2ccccc12)C(=O)N[C@@H](CCCN=C(N)N)C(=O)N[C@@H](CC(N)=O)C(=O)N[C@@H](CCCN=C(N)N)C(N)=O [RKWVWWRNR]
- MIC [13]: ≥ 100 µM
- MIC [22]: 5.77 µM (≈ 7.99 µg/mL)
- MIC [3]: 11.5 µM (≈ 16 µg/mL)
- MIC [6]: 90.1 µM (≈ 125 µg/mL)

SMILES: CC[C@H](C)[C@H](NC(=O)[C@H](CC(C)C)NC(=O)[C@@H](NC(=O)[C@H](CCCN=C(N)N)NC(=O)[C@H](CCCCN)NC(=O)[C@H](CCCN=C(N)N)NC(=O)[C@H](CCCCN)NC(=O)[C@H](CCCN=C(N)N)NC(=O)[C@H](CCCCN)NC(=O)[C@H](CCCN=C(N)N)NC(=O)[C@H](CCCCN)NC(=O)[C@H](CC(C)C)NC(=O)[C@@H](NC(=O)[C@@H](N)CC(C)C)[C@@H](C)CC)[C@@H](C)CC)C(=O)O [LILKRKRKRKRILI]
- MIC [7]: ≥ 64 µM
- MIC [8]: ≥ 64 µM
- MIC [4]: 128 µM (≈ 235 µg/mL)

SMILES: CC(C)C[C@H](NC(=O)[C@H](C)NC(=O)[C@H](CC(N)=O)NC(=O)[C@H](Cc1ccccc1)NC(=O)[C@@H](NC(=O)[C@@H](NC(=O)CN)C(C)C)[C@@H](C)O)C(=O)N[C@@H](CCCCN)C(=O)NCC(=O)N[C@H](C(=O)N[C@@H](C)C(=O)N[C@@H](CCCCN)C(=O)N[C@H](C(=O)N[C@H](C(=O)N[C@@H](C)C(=O)N[C@@H](C)C(=O)N[C@@H](CCC(N)=O)C(=O)N[C@@H](CC(C)C)C(=O)N[C@@H](CC(C)C)C(=O)N[C@@H](CCCCN)C(=O)N[C@H](C(=O)N[C@@H](C)C(=O)N[C@@H](CCCN=C(N)N)C(N)=O)[C@@H](C)O)C(C)C)[C@@H](C)O)C(C)C [GVTFNALKGVAKTVAAQLLKTAR]
- MIC [16]: ≥ 100 µM
- MIC [23]: ≥ 100 µM
- MIC [24]: 16 µM (≈ 37.7 µg/mL)
- MIC [25]: ≥ 64 µM
- MIC [26]: > 100 µM

Source: DBAASP
